{"source": "patent US20250000843A1", "about": "“LIGNAN-INSPIRED COMPOUNDS, METHODS OF MAKING, AND USING THEREOF” (IOWAIBO, INC., priority 2023, published 2025)", "key": {"telomerase [1]": {"target": "T1, telomerase (Homo sapiens, UniProt O14746)", "T1 sequence (O14746 whole entry)": "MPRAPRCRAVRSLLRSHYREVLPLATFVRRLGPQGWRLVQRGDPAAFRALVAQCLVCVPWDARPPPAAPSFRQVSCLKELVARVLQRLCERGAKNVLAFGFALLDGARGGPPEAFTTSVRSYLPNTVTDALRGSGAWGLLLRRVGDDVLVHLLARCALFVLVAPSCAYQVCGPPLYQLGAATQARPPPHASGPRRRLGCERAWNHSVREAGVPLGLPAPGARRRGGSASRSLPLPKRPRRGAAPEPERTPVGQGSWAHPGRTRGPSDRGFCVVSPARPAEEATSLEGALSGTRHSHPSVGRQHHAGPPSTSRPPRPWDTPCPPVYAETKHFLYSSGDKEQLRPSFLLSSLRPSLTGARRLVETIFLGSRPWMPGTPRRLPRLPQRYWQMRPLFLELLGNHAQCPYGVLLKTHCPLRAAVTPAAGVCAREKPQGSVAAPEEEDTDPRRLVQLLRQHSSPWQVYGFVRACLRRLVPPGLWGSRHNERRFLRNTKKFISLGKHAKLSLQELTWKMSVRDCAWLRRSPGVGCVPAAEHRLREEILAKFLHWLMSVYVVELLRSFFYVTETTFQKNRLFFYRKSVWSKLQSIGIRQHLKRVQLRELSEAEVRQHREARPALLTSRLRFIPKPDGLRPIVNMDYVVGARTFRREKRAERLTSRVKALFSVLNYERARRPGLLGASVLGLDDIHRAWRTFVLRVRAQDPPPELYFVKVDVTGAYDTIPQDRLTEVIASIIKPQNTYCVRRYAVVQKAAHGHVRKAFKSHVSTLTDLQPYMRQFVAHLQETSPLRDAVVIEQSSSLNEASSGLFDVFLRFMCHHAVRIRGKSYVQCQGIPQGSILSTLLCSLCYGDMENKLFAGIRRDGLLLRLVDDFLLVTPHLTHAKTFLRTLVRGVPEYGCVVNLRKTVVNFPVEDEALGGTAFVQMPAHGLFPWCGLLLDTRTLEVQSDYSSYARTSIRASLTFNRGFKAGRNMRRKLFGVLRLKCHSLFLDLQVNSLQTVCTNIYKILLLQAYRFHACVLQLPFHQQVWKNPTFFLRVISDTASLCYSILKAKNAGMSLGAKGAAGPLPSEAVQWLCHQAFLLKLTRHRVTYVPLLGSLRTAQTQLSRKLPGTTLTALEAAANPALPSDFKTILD", "T1 sequence (O60832 whole entry partner)": "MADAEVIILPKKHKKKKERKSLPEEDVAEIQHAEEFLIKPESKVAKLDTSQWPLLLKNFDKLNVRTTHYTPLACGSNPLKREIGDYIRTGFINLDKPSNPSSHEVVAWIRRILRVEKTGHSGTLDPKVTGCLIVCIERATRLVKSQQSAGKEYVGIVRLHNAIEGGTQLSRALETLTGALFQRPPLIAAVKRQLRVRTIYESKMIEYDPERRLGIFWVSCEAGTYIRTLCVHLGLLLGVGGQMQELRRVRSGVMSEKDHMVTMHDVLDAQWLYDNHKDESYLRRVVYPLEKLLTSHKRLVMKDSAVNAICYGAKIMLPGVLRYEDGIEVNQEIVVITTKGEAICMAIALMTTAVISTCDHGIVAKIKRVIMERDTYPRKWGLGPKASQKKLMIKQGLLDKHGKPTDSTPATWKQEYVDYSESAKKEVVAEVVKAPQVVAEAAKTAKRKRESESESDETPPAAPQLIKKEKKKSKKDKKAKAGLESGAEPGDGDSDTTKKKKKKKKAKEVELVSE", "T1 sequence (Q9NPE3 whole entry partner)": "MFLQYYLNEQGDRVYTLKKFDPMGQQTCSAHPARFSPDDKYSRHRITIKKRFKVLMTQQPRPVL", "T1 sequence (Q9NX24 whole entry partner)": "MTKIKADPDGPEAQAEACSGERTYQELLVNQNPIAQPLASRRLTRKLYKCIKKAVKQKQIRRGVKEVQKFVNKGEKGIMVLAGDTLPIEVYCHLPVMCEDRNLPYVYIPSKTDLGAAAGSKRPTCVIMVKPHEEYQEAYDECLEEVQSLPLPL", "T1 sequence (Q9NY12 whole entry partner)": "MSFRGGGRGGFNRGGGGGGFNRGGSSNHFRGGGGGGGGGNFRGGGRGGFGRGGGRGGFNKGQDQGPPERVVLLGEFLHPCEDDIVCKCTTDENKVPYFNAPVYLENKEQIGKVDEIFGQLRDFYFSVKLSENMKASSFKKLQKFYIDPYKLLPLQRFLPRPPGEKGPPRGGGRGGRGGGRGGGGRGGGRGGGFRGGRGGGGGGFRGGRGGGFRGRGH", "T1 sequence (Q9BUR4 whole entry partner)": "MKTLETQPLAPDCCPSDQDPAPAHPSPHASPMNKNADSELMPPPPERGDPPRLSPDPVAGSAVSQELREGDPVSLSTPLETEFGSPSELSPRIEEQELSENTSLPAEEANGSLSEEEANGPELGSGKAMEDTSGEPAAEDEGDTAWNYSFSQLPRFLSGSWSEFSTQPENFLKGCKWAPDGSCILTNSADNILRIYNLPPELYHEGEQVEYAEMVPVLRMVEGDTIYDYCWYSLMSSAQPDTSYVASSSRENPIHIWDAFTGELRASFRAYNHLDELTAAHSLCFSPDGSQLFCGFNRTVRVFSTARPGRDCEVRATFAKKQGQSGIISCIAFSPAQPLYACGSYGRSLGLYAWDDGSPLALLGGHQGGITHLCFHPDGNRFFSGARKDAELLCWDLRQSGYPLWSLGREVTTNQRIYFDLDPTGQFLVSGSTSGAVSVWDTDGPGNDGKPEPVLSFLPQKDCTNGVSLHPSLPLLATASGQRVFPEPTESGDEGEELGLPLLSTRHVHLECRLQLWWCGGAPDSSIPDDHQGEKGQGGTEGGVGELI", "test": "Q-TRAP telomerase activity in MCF7 breast cancer cells", "assay_type": "cell-based", "set-up": "allow the enzymatic addition of telomeric DNA repeats by endogenous telomerase; endogenous in cells"}, "telomerase [2]": {"target": "T1, telomerase", "test": "Q-TRAP telomerase activity in PC3 prostate cancer cells", "assay_type": "cell-based", "set-up": "allow the enzymatic addition of telomeric DNA repeats by endogenous telomerase; endogenous in cells; host or cells: PC3 prostate cancer cells (protein extract of lysed cell pellets); key to Significance of RTA difference vs. control: No: non-significant; Yes (*): p < 0.05; Yes (**): p < 0.01; Yes (***): p < 0.001; Yes (****): p < 0.0001", "procedure": "The general mechanism of the Q-TRAP technique involves cellular pellets being lysed for protein extraction which is then subsequently quantified and stored under specific conditions to avoid protein degradation. Protein obtained in the process was used within 72 hours and samples were stored at 4° C. Telomerase protein extracts are then incubated with a specific oligonucleotide substrate to allow the enzymatic addition of telomeric DNA repeats by endogenous telomerase. Following the enzymatic reaction, telomerase extension products are then amplified and quantified by real-time qPCR. In real time PCR, a positive reaction is detected by accumulation of a fluorescent signal. The Ct (cycle threshold) is defined as the number of cycles required for fluorescence to cross the threshold (i.e.: exceeds background levels). […] Data are reported as relative telomerase activity (RTA). […] Telomeric repeat amplification protocol (TRAP) was modified for quantitative real-time PCR (Q-TRAP) and was used to determine the effect of dibenzyl butyl lactone derivative on telomerase activity in prostate cancer cell. The same methods as used in Example 3 were employed. The same abbreviation scheme as presented in Table 7 is used throughout this example as well."}}, "data": [{"smiles": "O=C1OCC(Cc2ccc3c(c2)OCO3)/C1=C\\c1cccc(O)c1", "note": "(single isomer, unassigned) [Enantiomer B, 3-[(3,4-dimethoxyphenyl)cyclopentyl], 4-[(3-hydroxyphenol)methyl]oxolan-2-one]", "values": [{"measurement": "Telomerase Activity RTA (%)", "setting": "telomerase [1]; MCF7, 2.5 μM, 24 Hours", "value": 47.79, "unit": "%"}, {"measurement": "Telomerase Activity RTA (%)", "setting": "telomerase [1]; MCF7, 2.5 μM, 48 Hours", "value": 23.71, "unit": "%"}, {"measurement": "Telomerase Activity RTA (%)", "setting": "telomerase [1]; MCF7, 2.5 μM, 72 Hours", "value": 15.49, "unit": "%"}, {"measurement": "Telomerase Activity RTA (%)", "setting": "telomerase [1]; MCF7, 5 μM, 24 Hours", "value": 48.30, "unit": "%"}, {"measurement": "Telomerase Activity RTA (%)", "setting": "telomerase [1]; MCF7, 5 μM, 48 Hours", "value": 31.70, "unit": "%"}, {"measurement": "Telomerase Activity RTA (%)", "setting": "telomerase [1]; MCF7, 5 μM, 72 Hours", "value": 14.68, "unit": "%"}, {"measurement": "Telomerase Activity RTA (%)", "setting": "telomerase [1]; MCF7, 10 μM, 24 Hours", "value": 59.90, "unit": "%"}, {"measurement": "Telomerase Activity RTA (%)", "setting": "telomerase [1]; MCF7, 10 μM, 48 Hours", "value": 32.76, "unit": "%"}, {"measurement": "Telomerase Activity RTA (%)", "setting": "telomerase [1]; MCF7, 10 μM, 72 Hours", "value": 16.26, "unit": "%"}, {"measurement": "Telomerase Activity RTA (%)", "setting": "telomerase [1]; MCF7, 20 μM, 24 Hours", "value": 44.48, "unit": "%"}, {"measurement": "Telomerase Activity RTA (%)", "setting": "telomerase [1]; MCF7, 20 μM, 48 Hours", "value": 44.82, "unit": "%"}, {"measurement": "Telomerase Activity RTA (%)", "setting": "telomerase [1]; MCF7, 20 μM, 72 Hours", "value": 16.69, "unit": "%"}, {"measurement": "Telomerase Activity RTA (%)", "setting": "telomerase [1]; MCF7, 40 μM, 24 Hours", "value": 53.63, "unit": "%"}, {"measurement": "Telomerase Activity RTA (%)", "setting": "telomerase [1]; MCF7, 40 μM, 48 Hours", "value": 26.82, "unit": "%"}, {"measurement": "Telomerase Activity RTA (%)", "setting": "telomerase [1]; MCF7, 40 μM, 72 Hours", "value": 10.17, "unit": "%"}, {"measurement": "IC50", "setting": "telomerase [1]; MCF7, 24 h", "value": "> 40", "unit": "µM"}, {"measurement": "telomerase activity levels of treated groups compared to control", "setting": "telomerase [1]; MCF7, 24 hours", "value": "lower telomerase activity levels compared to control"}, {"measurement": "Significance of RTA difference vs. control", "setting": "telomerase [1]; MCF7, 24 hours, 5 μM", "value": "YES (*)"}, {"measurement": "Significance of RTA difference vs. control", "setting": "telomerase [1]; MCF7, 24 hours, 10 μM", "value": "YES (*)"}, {"measurement": "Significance of RTA difference vs. control", "setting": "telomerase [1]; MCF7, 24 hours, 20 μM", "value": "YES (*)"}, {"measurement": "Significance of RTA difference vs. control", "setting": "telomerase [1]; MCF7, 24 hours, 40 μM", "value": "YES (*)"}, {"measurement": "IC50", "setting": "telomerase [1]; MCF7, 48 h", "value": 5.17, "unit": "µM"}, {"measurement": "telomerase activity levels of treated groups compared to control", "setting": "telomerase [1]; MCF7, 48 hours", "value": "lower telomerase activity levels compared to control, even more pronounced than 24 hours"}, {"measurement": "Significance of RTA difference vs. control", "setting": "telomerase [1]; MCF7, 48 hours, 2.5 μM", "value": "YES (*)"}, {"measurement": "Significance of RTA difference vs. control", "setting": "telomerase [1]; MCF7, 48 hours, 10 μM", "value": "YES (*)"}, {"measurement": "Significance of RTA difference vs. control", "setting": "telomerase [1]; MCF7, 48 hours, 40 μM", "value": "YES (*)"}, {"measurement": "IC50", "setting": "telomerase [1]; MCF7, 72 h", "value": "> 40", "unit": "µM"}, {"measurement": "telomerase activity levels of treated groups compared to control", "setting": "telomerase [1]; MCF7, 72 hours", "value": "the group treated with the highest concentration presented lower RTA levels"}, {"measurement": "Significance of RTA difference vs. control", "setting": "telomerase [1]; MCF7, 72 hours, 2.5 μM", "value": "YES (*)"}, {"measurement": "telomerase inhibition effect", "setting": "telomerase [1]; MCF7 breast cancer cells", "value": "exhibit a telomerase inhibition effect"}, {"measurement": "Telomerase Activity RTA (%)", "setting": "telomerase [2]; PC3, 2.5 μM, 24 Hours", "value": 48.73, "unit": "%"}, {"measurement": "Telomerase Activity RTA (%)", "setting": "telomerase [2]; PC3, 2.5 μM, 48 Hours", "value": 126.77, "unit": "%"}, {"measurement": "Telomerase Activity RTA (%)", "setting": "telomerase [2]; PC3, 2.5 μM, 72 Hours", "value": 13.05, "unit": "%"}, {"measurement": "Telomerase Activity RTA (%)", "setting": "telomerase [2]; PC3, 5 μM, 24 Hours", "value": 36.48, "unit": "%"}, {"measurement": "Telomerase Activity RTA (%)", "setting": "telomerase [2]; PC3, 5 μM, 48 Hours", "value": 112.17, "unit": "%"}, {"measurement": "Telomerase Activity RTA (%)", "setting": "telomerase [2]; PC3, 5 μM, 72 Hours", "value": 11.67, "unit": "%"}, {"measurement": "Telomerase Activity RTA (%)", "setting": "telomerase [2]; PC3, 10 μM, 24 Hours", "value": 23.87, "unit": "%"}, {"measurement": "Telomerase Activity RTA (%)", "setting": "telomerase [2]; PC3, 10 μM, 48 Hours", "value": 102.96, "unit": "%"}, {"measurement": "Telomerase Activity RTA (%)", "setting": "telomerase [2]; PC3, 10 μM, 72 Hours", "value": 12.58, "unit": "%"}, {"measurement": "Telomerase Activity RTA (%)", "setting": "telomerase [2]; PC3, 20 μM, 24 Hours", "value": 31.05, "unit": "%"}, {"measurement": "Telomerase Activity RTA (%)", "setting": "telomerase [2]; PC3, 20 μM, 48 Hours", "value": 154.17, "unit": "%"}, {"measurement": "Telomerase Activity RTA (%)", "setting": "telomerase [2]; PC3, 20 μM, 72 Hours", "value": 7.53, "unit": "%"}, {"measurement": "Telomerase Activity RTA (%)", "setting": "telomerase [2]; PC3, 40 μM, 24 Hours", "value": 14.44, "unit": "%"}, {"measurement": "Telomerase Activity RTA (%)", "setting": "telomerase [2]; PC3, 40 μM, 48 Hours", "value": 128.83, "unit": "%"}, {"measurement": "Telomerase Activity RTA (%)", "setting": "telomerase [2]; PC3, 40 μM, 72 Hours", "value": 13.49, "unit": "%"}, {"measurement": "IC50", "setting": "telomerase [2]; PC3, 24 h", "value": 2.99, "unit": "µM"}, {"measurement": "telomerase activity levels of treated groups compared to control", "setting": "telomerase [2]; PC3, 24 hours", "value": "lower telomerase activity levels compared to control"}, {"measurement": "Significance of RTA difference vs. control", "setting": "telomerase [2]; PC3, 24 hours, 2.5 μM", "value": "Yes (*) (Yes (*): p < 0.05)"}, {"measurement": "Significance of RTA difference vs. control", "setting": "telomerase [2]; PC3, 24 hours, 5 μM", "value": "Yes (**) (Yes (**): p < 0.01)"}, {"measurement": "Significance of RTA difference vs. control", "setting": "telomerase [2]; PC3, 24 hours, 10 μM", "value": "Yes (**) (Yes (**): p < 0.01)"}, {"measurement": "Significance of RTA difference vs. control", "setting": "telomerase [2]; PC3, 24 hours, 20 μM", "value": "Yes (**) (Yes (**): p < 0.01)"}, {"measurement": "Significance of RTA difference vs. control", "setting": "telomerase [2]; PC3, 24 hours, 40 μM", "value": "Yes (***) (Yes (***): p < 0.001)"}, {"measurement": "IC50", "setting": "telomerase [2]; PC3, 48 h", "value": 15.4, "unit": "µM"}, {"measurement": "telomerase activity levels of treated groups compared to control", "setting": "telomerase [2]; PC3, 48 hours", "value": "the differences were not found to be significant"}, {"measurement": "Significance of RTA difference vs. control", "setting": "telomerase [2]; PC3, 48 hours, 2.5 μM", "value": "No"}, {"measurement": "Significance of RTA difference vs. control", "setting": "telomerase [2]; PC3, 48 hours, 5 μM", "value": "No"}, {"measurement": "Significance of RTA difference vs. control", "setting": "telomerase [2]; PC3, 48 hours, 10 μM", "value": "No"}, {"measurement": "Significance of RTA difference vs. control", "setting": "telomerase [2]; PC3, 48 hours, 20 μM", "value": "No"}, {"measurement": "Significance of RTA difference vs. control", "setting": "telomerase [2]; PC3, 48 hours, 40 μM", "value": "No"}, {"measurement": "IC50", "setting": "telomerase [2]; PC3, 72 h", "value": 2.38, "unit": "µM"}, {"measurement": "telomerase activity levels of treated groups compared to control", "setting": "telomerase [2]; PC3, 72 hours", "value": "without any particular differences between the treated and control groups"}, {"measurement": "Significance of RTA difference vs. control", "setting": "telomerase [2]; PC3, 72 hours, 2.5 μM", "value": "No"}, {"measurement": "Significance of RTA difference vs. control", "setting": "telomerase [2]; PC3, 72 hours, 5 μM", "value": "No"}, {"measurement": "Significance of RTA difference vs. control", "setting": "telomerase [2]; PC3, 72 hours, 10 μM", "value": "No"}, {"measurement": "Significance of RTA difference vs. control", "setting": "telomerase [2]; PC3, 72 hours, 20 μM", "value": "Yes (*) (Yes (*): p < 0.05)"}, {"measurement": "Significance of RTA difference vs. control", "setting": "telomerase [2]; PC3, 72 hours, 40 μM", "value": "No"}, {"measurement": "telomerase inhibition effect", "setting": "telomerase [2]; PC3 prostate cancer cell line", "value": "exhibits a telomerase inhibition effect at 24 hours"}]}]}
